Data taken from US5474988A, “5-phenylpyrrolo-1,4-benzoxazine and 5-phenylpyrrolo-1,4-benzothiazine compounds, process and intermediates for their production and pharmaceutical compositions containing them” (Kali-Chemie Pharma GmbH, priority 1993, dated 1995).

Columns and labels:
[1] = system: 5-lipoxygenase; experiment: inhibition of 5-lipoxygenase activity in polymorphonuclear rat leucocytes (LTB4 formation); format: cell-based; conditions: 10^-5 mol/l; 22° C.
Summary of the method: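 Thioglycolate-elicited peritoneal PMNs from male Sprague-Dawley rats (0.5×10^6 cells) preincubated 15 min at 22 °C with 10 μM compound in HEPES-buffered HBSS, then stimulated with 5 μM calcimycin for 10 min. LTB4 quantified by reverse-phase HPLC at 270 nm; % inhibition versus solvent control.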

[2] = system: P.A.F.-induced aggregation of blood platelets; experiment: anti-P.A.F. action in vitro (P.A.F.-induced platelet aggregation); format: cell-based; conditions: Oryctolagus cuniculus, 10^-5 mole/liter, read-out: Anti-P.A.F. activity in vitro, % inhibition of the P.A.F.-induced aggregation of blood platelets from rabbit blood
Summary of the method: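 Washed rabbit platelets (4×10^9/ml stock suspension, aspirin-lysine treated) in modified Tyrode buffer pH 7.4 with 1.3 mM CaCl2 and gelatine; test substance at 10^-5 mol/l final, 90 s preincubation before P.A.F. Aggregation followed 4-5 min by aggregometer; % inhibition of P.A.F.-induced aggregation increase calculated.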

Compound | In vitro inhibitory activity on LTB4 formation in rat PMNs stimulated by calcium ionophore A23187 [1] [%] | inhibition at 10 µM [2] [%]
Cc1cccnc1N1CCN(CCCC2Cn3c(-c4cc(C)c(O)c(C)c4)c(C)c4c(O)ccc(c43)O2)CC1 (centres unmarked) [Example 74] | 100 | –
Cc1ccnc(N2CCN(CCC3Cn4c(-c5ccc(O)c(O)c5)c(C)c5cccc(c54)O3)CC2)c1 (centres unmarked) [Example 13] | 98 | 94
Cc1ccnc(N2CCN(CCC3Cn4c(-c5cc(C)c(O)c(C)c5)c(C)c5cc(F)cc(c54)O3)CC2)c1 (centres unmarked) [Example 42] | – | 40
Cc1ccnc(N2CCN(C(=O)CCC3Cn4c(-c5ccc(O)cc5)c(C)c5c(O)ccc(c54)O3)CC2)c1 (centres unmarked) [Example 69] | 100 | 97
Cc1cc(-c2c(C)c3c(O)ccc4c3n2CC(CCC(=O)N2CCN(c3ccccn3)CC2)O4)cc(C)c1O (centres unmarked) [Example 71] | 100 | 84
Cc1cc(-c2c(C)c3cccc4c3n2CC(CCCCN2CCN(c3ccccn3)CC2)O4)cc(C)c1O (centres unmarked) [Example 65] | 64 | 52
COc1cc(-c2c(C)c3cccc4c3n2CC(CCC(=O)N2CCN(c3ccc(C)cn3)CC2)O4)ccc1O (centres unmarked) [Example 39] | 98 | –
Cc1ccnc(N2CCN(CCCC3Cn4c(-c5cc(C)c(O)c(C)c5)c(C)c5c(F)ccc(c54)O3)CC2)c1 (centres unmarked) [Example 29] | – | 50
COc1cc(-c2c(C)c3cccc4c3n2CC(CCN2CCN(c3cc(C)ccn3)CC2)O4)ccc1O (centres unmarked) [Example 12] | 100 | 93
COc1ccc2c3c1c(C)c(-c1ccc(O)cc1)n3CC(CCN1CCN(c3cc(C)ccn3)CC1)O2 (centres unmarked) [Example 3, 2,3-Dihydro-5-(4-hydroxyphenyl)-7-methoxy-6-methyl-2-[2-(4-(4-methylpyridin-2-yl)piperazin-1-yl)ethyl]pyrrolo[1,2,3-de]-1,4-benzoxazine] | 96 | 92
Cc1ccnc(N2CCN(C(=O)CCC3Cn4c(-c5ccc(O)cc5)c(C)c5cccc(c54)O3)CC2)c1 (centres unmarked) [Example 15] | 94 | 100
Cc1ccnc(N2CCN(C(=O)CCC3Cn4c(-c5cc(C)c(O)c(C)c5)c(C)c5c(O)ccc(c54)O3)CC2)c1 (centres unmarked) [Example 67] | 100 | 97
Cc1ccnc(N2CCN(CCC3Cn4c(-c5cc(C)c(O)c(C)c5)c(C)c5c(F)ccc(c54)O3)CC2)c1 (centres unmarked) [Example 28] | 48 | 83
Cc1ccnc(N2CCN(CCCC3Cn4c(-c5cc(C)c(O)c(C)c5)c(C)c5c(O)ccc(c54)O3)CC2)c1 (centres unmarked) [Example 73] | 100 | –
Cc1cc(-c2c(C)c3cccc4c3n2CC(CCCC(=O)N2CCN(c3ccccn3)CC2)O4)cc(C)c1O (centres unmarked) [Example 23] | 92 | 66
Cc1ccnc(N2CCN(CCC3Cn4c(-c5cc(C)c(O)c(C)c5)c(C)c5cccc(c54)O3)CC2)c1 (centres unmarked) [Example 20] | 75 | 92
Cc1ccnc(N2CCN(C(=O)CCCC3Cn4c(-c5cc(C)c(O)c(C)c5)c(C)c5cccc(c54)O3)CC2)c1 (centres unmarked) [Example 9, 2,3-Dihydro-5-(3,5-dimethyl-4-hydroxyphenyl)-6-methyl-2-[4-(4-(4-methylpyridin-2-yl)piperazin-1-yl)-4-oxobutyl]-pyrrolo[1,2,3-de]-1,4-benzoxazine] | 86 | 67
Cc1ccnc(N2CCN(CCC3Cn4c(-c5cc(C)c(O)c(C)c5)c(C)c5cc(O)cc(c54)O3)CC2)c1 (centres unmarked) [Example 44] | 100 | 99
Cc1ccnc(N2CCN(C(=O)CCC3Cn4c(-c5cc(C)c(O)c(C)c5)c(C)c5cccc(c54)O3)CC2)c1 (centres unmarked) [Example 25] | – | 91
COc1cc2c3c(c1)c(C)c(-c1cc(C)c(O)c(C)c1)n3CC(CCN1CCN(c3cc(C)ccn3)CC1)O2 (centres unmarked) [Example 43] | 66 | 95
COc1cc(-c2c(C)c3c(O)ccc4c3n2CC(CCC(=O)N2CCN(c3ccccn3)CC2)O4)cc(C)c1O (centres unmarked) [Example 72] | 100 | 79
Cc1cc(-c2c(C)c3c(OCc4ccccc4)ccc4c3n2CC(CCC(=O)N2CCN(c3ccccn3)CC2)O4)cc(C)c1O (centres unmarked) [Example 75] | 51 | –
Cc1cc(-c2c(C)c3cccc4c3n2CC(CCC(=O)N2CCN(c3ccccn3)CC2)O4)cc(C)c1O (centres unmarked) [Example 26] | 67 | 82
Cc1ccc(N2CCN(C(=O)CCC3Cn4c(-c5ccc(O)cc5)c(C)c5cccc(c54)O3)CC2)nc1 (centres unmarked) [Example 34] | 95 | 77
Cc1cc(-c2c(C)c3c(F)ccc4c3n2CC(CCN2CCN(c3ccccn3)CC2)O4)cc(C)c1O (centres unmarked) [Example 27] | 90 | –
Cc1ccnc(N2CCN(CCC3Cn4c(-c5ccc(O)cc5)c(C)c5c(O)ccc(c54)O3)CC2)c1 (centres unmarked) [Example 4, 2,3-Dihydro-7-hydroxy-5-(4-hydroxyphenyl)-6-methyl-2-[2-(4-(4-methylpyridin-2-yl)piperazin-1-yl)ethyl]pyrrolo[1,2,3-de]-1,4-benzoxazine] | 100 | 99
